Reference: patent publication US20100137266A1, “TREATMENT OF INSULIN RESISTANCE AND DISORDERS ASSOCIATED THEREWITH” (UNIVERSITETET I OSLO, priority 2006, published 2010)

Test: Stability in bovine plasma
Type: in vitro ADME
Settings: 300 μM in citrated bovine plasma, 37° C., 24 h; HPLC detection at 210 nm
Description: A stock solution of 22(S)-hydroxycholesterol diglutarate was prepared by adding 50 mg of the compound to a 50 ml volumetric flask, followed by 0.5 ml DMSO and deionised water to 50 ml, giving a final concentration of 1.0 mg/ml. The plasma solution was prepared by adding 0.38 ml of the 22(S)-hydroxycholesterol diglutarate stock solution to 1.62 ml of citrated bovine plasma, giving a final concentration of 300 μM. The citrated bovine plasma was incubated at 37° C. for 24 h. Proteins were discarded from the samples by centrifugal filtration before 50 μl volume of the filtrate was injected with an autosampler onto an analytical column (C18 reverse phase system) The mobile phase consisted of a gradient composed of water and acetonitrile (20→50% from 0 to 10 min, the mobile phase increased from 0.5 ml/min→1.0 ml/min in 10 minutes). Eluted compounds were detected at 210 nm.

## CC(C)CCC(OC(=O)CCCC(=O)O)[C@@H](C)C1CCC2C3CC=C4CC(OC(=O)CCCC(=O)O)CCC4(C)C3CCC21C (stereo partly drawn) [22(S)-hydroxycholesterol diglutarate, 22(S)-Hydroxycholesterol Diglutarate]
  detection of compound after incubation in plasma: not possible to detect
